In paper PMC9460261, “Need for a Standardized Translational Drug Development Platform: Lessons Learned from the Repurposing of Drugs for COVID-19” (Microorganisms, 2022):
Like-named read-outs stand apart in the source and are kept apart here.

Legend:
SARS-CoV-2 [1] = settings: cited from earlier work; for EC50: read-out: SARS-CoV-2 EC50
[2] = Binding to antiviral assay medium by Rapid Equilibrium Dialysis; settings: 2% serum DMEM media; DNDi in-house data
SARS-CoV-2 in Vero cells [3] = settings: for Selectivity Index (Vero cells), With Pgp pump inhibitor / Selectivity Index (Vero cells), Without Pgp pump inhibitor: T: toxicity observed; for IC50: * one replicate only
[4] = tested on: SARS-CoV-2 in Calu-3 cells; settings: for IC50: read-out: Calu-3 cells Average IC50, * one replicate only
[5] = Population PK model from satellite PK studies in hamster
in vitro = settings: African green monkey, Selectivity Index (Vero cells)
[6] = female, LGV Golden Syrian, hamster, in vivo
[7] = tested on: SARS-CoV-2 in Calu-3 cells; test: microbe, parasite or virus in culture; settings: Severe acute respiratory syndrome coronavirus 2, Calu-3, read-out: Calu-3 cells Average IC50
SARS-CoV-2 [8] = type: in vivo, Syrian hamster; settings: doses, frequency, duration as in Table 1
SARS-CoV-2 in Vero cells [9] = test: microbe, parasite or virus in culture; settings: Severe acute respiratory syndrome coronavirus 2, Vero
[10] = read-out: VERO cells Average IC50, With Pgp pump inhibitor, 2 μM CP-100356
[11] = read-out: VERO cells Average IC50, Without Pgp pump inhibitor
[12] = hamster of the study's median weight (80-131 g)
[13] = read-out: VERO cells Average IC50, With Pgp pump inhibitor, 2 μM CP-100356, * one replicate only
[14] = read-out: VERO cells Average IC50, Without Pgp pump inhibitor, * one replicate only

Cc1c(-c2ccc(-c3ccccc3F)cc2)nc2ccc(F)cc2c1C(=O)O [Brequinar, brequinar]
EC50 (SARS-CoV-2 [1]; host cell A549-ACE): 0.05 µM
EC50 (SARS-CoV-2 [1]; host cell Caco-2): > 50 µM
EC50 (SARS-CoV-2 [1]; host cell Huh7.5): 0.5 µM
EC50 (SARS-CoV-2 [1]; host cell Vero E6, ref 51): 0.12 µM

O=c1nc(NO)ccn1[C@@H]1O[C@H](CO)[C@@H](O)[C@H]1O [EIDD-1931]
Fraction unbound in assay medium [2]: 99.7%
Selectivity Index (Vero cells), With Pgp pump inhibitor (SARS-CoV-2 in Vero cells [3]): > 37
Selectivity Index (Vero cells), Without Pgp pump inhibitor (SARS-CoV-2 in Vero cells [3]): > 32
IC50 (SARS-CoV-2 in Vero cells [3]; [10]): 1.3 µM
IC50 (SARS-CoV-2 in Vero cells [3]; [11]): 1.5 µM
IC50 [4]: 3.6 µM

C[C@@]1(F)[C@H](O)[C@@H](CO)O[C@H]1n1ccc(=O)[nH]c1=O [GS-331007]
CL/F, elimination clearance, population estimate (%RSE) [5, 12]: 390 (17.4) mL/h
VC/F, central volume of distribution, population estimate (%RSE) [5, 12]: 2750 (17.0) mL

CC1(C)C(=O)N(c2ccc(C#N)c(C(F)(F)F)c2F)C(=S)N1c1ccc(CCCc2ncco2)nc1 [Proxalutamide, proxalutamide]
EC50 (SARS-CoV-2 [1]; host cell LNCaP Cells): 0.097 µM
Activity In Vitro; Potency EC50 or IC50 < 10 µM; Vero Cells (SARS-CoV-2 in Vero cells [3]): No (Potency EC50 or IC50 < 10 µM)
Selectivity Index (Vero cells), With Pgp pump inhibitor (SARS-CoV-2 in Vero cells [3]): < 2.3
Selectivity Index (Vero cells), Without Pgp pump inhibitor (SARS-CoV-2 in Vero cells [3]): < 1.6
IC50 (SARS-CoV-2 in Vero cells [3]; [10]): 21.5 µM
IC50 (SARS-CoV-2 in Vero cells [3]; [11]): 30.3 µM
Activity In Vitro; Potency EC50 or IC50 < 10 µM; Calu-3 Cells [4]: No (Potency EC50 or IC50 < 10 µM)
IC50 [4]: 14.5 µM

CC(=O)Oc1ccccc1C(=O)Nc1ncc([N+](=O)[O-])s1 [Nitazoxanide, nitazoxanide]
selectivity ratio (in vitro; With Pgp pump inhibitor): > 14.7
selectivity ratio (in vitro; Without Pgp pump inhibitor): > 7.9
CL/F, elimination clearance, population estimate (%RSE) [6]: 626 (11.9) mL/h
VC/F, central volume of distribution, population estimate (%RSE) [6]: 188 (38.6) mL
IC50 [7]: 13.6 µM
Activity in SARS-CoV-2 Hamster Model (SARS-CoV-2 [8]): No
IC50 (SARS-CoV-2 in Vero cells [9]; [13]): 3.4 µM
IC50 (SARS-CoV-2 in Vero cells [9]; [14]): 6.3 µM

NCCC(Oc1ccc(C(F)(F)F)cc1)c1ccccc1 (centres unmarked) [norfluoxetine]
FFP, fraction undergoing first-pass metabolism, population estimate (%RSE) ([5]; hamster 97 g): 0.323 (11)
CL/F, elimination clearance, population estimate (%RSE) [5, 12]: 93.3 (6.3) mL/h
VC/F, central volume of distribution, population estimate (%RSE) [5, 12]: 2740 (5.7) mL

ivermectin
IC50 (SARS-CoV-2 [1]; Vero-hSLAM cells, read-out: IC50, medium): 2.8 µM
EC50 (SARS-CoV-2 [1]; host cell Vero E6, ref 22): 1.7 µM
EC50 (SARS-CoV-2 [1]; host cell Vero E6, ref 38): 2.3 µM
EC50 (SARS-CoV-2 [1]; host cell not given): 2 µM
Activity in SARS-CoV-2 Hamster Model (SARS-CoV-2 [8]): No
Activity In Vitro; Potency EC50 or IC50 < 10 µM; Vero Cells (SARS-CoV-2 in Vero cells [3]): Yes (Potency EC50 or IC50 < 10 µM)
IC50 (SARS-CoV-2 in Vero cells [3]; [10]): 1.1 µM
IC50 (SARS-CoV-2 in Vero cells [3]; [11]): 4.3 µM
Effect of SC administration on F ([5]; compared to PO administration): 0.656 (15.7)
Effect of SC administration on KA ([5]; compared to PO administration): 2.05 (50.0)
Effect of SC administration on MTT ([5]; compared to PO administration): -0.85 (5.61)
MTT, mean transit time, population estimate (%RSE) ([5]; hamster 120 g): 0.478 (7.42) h
CL/F, elimination clearance, population estimate (%RSE) [5, 12]: 13.3 (0.160) mL/h
KA, absorption rate constant, population estimate (%RSE) [5, 12]: 0.531 (8.35) h-1
Activity In Vitro; Potency EC50 or IC50 < 10 µM; Calu-3 Cells [4]: Yes (Potency EC50 or IC50 < 10 µM)
IC50 [4]: 8.9 µM

CCCN(CCC)S(=O)(=O)c1ccc(C(=O)O)cc1 [Probenecid, probenecid]
EC50 (SARS-CoV-2 [1]; host cell NHBE): 0.0013 µM
EC50 (SARS-CoV-2 [1]; host cell Vero E6, ref 54): 0.75 µM
IC50 [7]: > 50 µM
Activity In Vitro; Potency EC50 or IC50 < 10 µM; Vero Cells (SARS-CoV-2 in Vero cells [3]): No (Potency EC50 or IC50 < 10 µM)
IC50 (SARS-CoV-2 in Vero cells [9]; [13]): > 50 µM
IC50 (SARS-CoV-2 in Vero cells [9]; [14]): > 50 µM
Activity In Vitro; Potency EC50 or IC50 < 10 µM; Calu-3 Cells [4]: No (Potency EC50 or IC50 < 10 µM)

CC(=O)CCCCn1c(=O)c2c(ncn2C)n(C)c1=O [Pentoxyfilline, pentoxyfilline]
IC50 [7]: > 50 µM
Activity In Vitro; Potency EC50 or IC50 < 10 µM; Vero Cells (SARS-CoV-2 in Vero cells [3]): No (Potency EC50 or IC50 < 10 µM)
IC50 (SARS-CoV-2 in Vero cells [9]; [13]): > 50 µM
IC50 (SARS-CoV-2 in Vero cells [9]; [14]): > 50 µM
Activity In Vitro; Potency EC50 or IC50 < 10 µM; Calu-3 Cells [4]: No (Potency EC50 or IC50 < 10 µM)
